Source: patent US10421765B2, “Tetrahydropyrido[4,3-d]pyrimidine inhibitors of ATR kinase” (Board of Regents, The University of Texas System, priority 2017, dated 2019)
pIC50: −log10 of the molar value.

Experiments:
[1] = tested on: ATR-driven phosphorylation of Chk1 kinase at Serine 345 in HT-29 colorectal adenocarcinoma cells; assay: pCHK1 cellular assay (CHK1 p-Ser345 AlphaScreen SureFire); type: cell-based; conditions: Homo sapiens, HT-29, HT-29 cells, 4-nitroquinoline N-oxide 12 uM; read-out: Cell IC50 (pCHK1 IC50 values)
Outline: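 HT-29 cells seeded overnight, treated with 1:3 serially diluted compound for 90 minutes at 37° C., then 12 uM (final) 4-nitroquinoline N-oxide for 120 minutes. Lysates read for Chk1 p-Ser345 by AlphaScreen SureFire; IC50 from four-parameter logistic fit, normalized to DMSO (max) and 5 uM ATR inhibitor (min).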

ATR/ATRIP complex = ATR/ATRIP complex (Homo sapiens (Human), UniProt Q13535); assay: ATR/ATRIP enzymatic assay (Caliper-based); type: biochemical; conditions: FAM-labeled RAD17 peptide, ATP; read-out: ATR/ATRIP Enzyme IC50
Outline: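 FLAG-TEV-ATR/His6-ATRIP co-expressed in HEK293 and anti-FLAG purified. Compound preincubated 30 min at 28 °C with enzyme (2x solution 4 nM), then FAM-RAD17 peptide (2x solution 10 uM, 2 μM ATP) added for 6 h at 28 °C; HEPES pH 8, 10 mM MnCl2. Caliper conversion read-out, IC50 from four-parameter fit.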

Sequence of ATR/ATRIP complex (Q13535 whole entry): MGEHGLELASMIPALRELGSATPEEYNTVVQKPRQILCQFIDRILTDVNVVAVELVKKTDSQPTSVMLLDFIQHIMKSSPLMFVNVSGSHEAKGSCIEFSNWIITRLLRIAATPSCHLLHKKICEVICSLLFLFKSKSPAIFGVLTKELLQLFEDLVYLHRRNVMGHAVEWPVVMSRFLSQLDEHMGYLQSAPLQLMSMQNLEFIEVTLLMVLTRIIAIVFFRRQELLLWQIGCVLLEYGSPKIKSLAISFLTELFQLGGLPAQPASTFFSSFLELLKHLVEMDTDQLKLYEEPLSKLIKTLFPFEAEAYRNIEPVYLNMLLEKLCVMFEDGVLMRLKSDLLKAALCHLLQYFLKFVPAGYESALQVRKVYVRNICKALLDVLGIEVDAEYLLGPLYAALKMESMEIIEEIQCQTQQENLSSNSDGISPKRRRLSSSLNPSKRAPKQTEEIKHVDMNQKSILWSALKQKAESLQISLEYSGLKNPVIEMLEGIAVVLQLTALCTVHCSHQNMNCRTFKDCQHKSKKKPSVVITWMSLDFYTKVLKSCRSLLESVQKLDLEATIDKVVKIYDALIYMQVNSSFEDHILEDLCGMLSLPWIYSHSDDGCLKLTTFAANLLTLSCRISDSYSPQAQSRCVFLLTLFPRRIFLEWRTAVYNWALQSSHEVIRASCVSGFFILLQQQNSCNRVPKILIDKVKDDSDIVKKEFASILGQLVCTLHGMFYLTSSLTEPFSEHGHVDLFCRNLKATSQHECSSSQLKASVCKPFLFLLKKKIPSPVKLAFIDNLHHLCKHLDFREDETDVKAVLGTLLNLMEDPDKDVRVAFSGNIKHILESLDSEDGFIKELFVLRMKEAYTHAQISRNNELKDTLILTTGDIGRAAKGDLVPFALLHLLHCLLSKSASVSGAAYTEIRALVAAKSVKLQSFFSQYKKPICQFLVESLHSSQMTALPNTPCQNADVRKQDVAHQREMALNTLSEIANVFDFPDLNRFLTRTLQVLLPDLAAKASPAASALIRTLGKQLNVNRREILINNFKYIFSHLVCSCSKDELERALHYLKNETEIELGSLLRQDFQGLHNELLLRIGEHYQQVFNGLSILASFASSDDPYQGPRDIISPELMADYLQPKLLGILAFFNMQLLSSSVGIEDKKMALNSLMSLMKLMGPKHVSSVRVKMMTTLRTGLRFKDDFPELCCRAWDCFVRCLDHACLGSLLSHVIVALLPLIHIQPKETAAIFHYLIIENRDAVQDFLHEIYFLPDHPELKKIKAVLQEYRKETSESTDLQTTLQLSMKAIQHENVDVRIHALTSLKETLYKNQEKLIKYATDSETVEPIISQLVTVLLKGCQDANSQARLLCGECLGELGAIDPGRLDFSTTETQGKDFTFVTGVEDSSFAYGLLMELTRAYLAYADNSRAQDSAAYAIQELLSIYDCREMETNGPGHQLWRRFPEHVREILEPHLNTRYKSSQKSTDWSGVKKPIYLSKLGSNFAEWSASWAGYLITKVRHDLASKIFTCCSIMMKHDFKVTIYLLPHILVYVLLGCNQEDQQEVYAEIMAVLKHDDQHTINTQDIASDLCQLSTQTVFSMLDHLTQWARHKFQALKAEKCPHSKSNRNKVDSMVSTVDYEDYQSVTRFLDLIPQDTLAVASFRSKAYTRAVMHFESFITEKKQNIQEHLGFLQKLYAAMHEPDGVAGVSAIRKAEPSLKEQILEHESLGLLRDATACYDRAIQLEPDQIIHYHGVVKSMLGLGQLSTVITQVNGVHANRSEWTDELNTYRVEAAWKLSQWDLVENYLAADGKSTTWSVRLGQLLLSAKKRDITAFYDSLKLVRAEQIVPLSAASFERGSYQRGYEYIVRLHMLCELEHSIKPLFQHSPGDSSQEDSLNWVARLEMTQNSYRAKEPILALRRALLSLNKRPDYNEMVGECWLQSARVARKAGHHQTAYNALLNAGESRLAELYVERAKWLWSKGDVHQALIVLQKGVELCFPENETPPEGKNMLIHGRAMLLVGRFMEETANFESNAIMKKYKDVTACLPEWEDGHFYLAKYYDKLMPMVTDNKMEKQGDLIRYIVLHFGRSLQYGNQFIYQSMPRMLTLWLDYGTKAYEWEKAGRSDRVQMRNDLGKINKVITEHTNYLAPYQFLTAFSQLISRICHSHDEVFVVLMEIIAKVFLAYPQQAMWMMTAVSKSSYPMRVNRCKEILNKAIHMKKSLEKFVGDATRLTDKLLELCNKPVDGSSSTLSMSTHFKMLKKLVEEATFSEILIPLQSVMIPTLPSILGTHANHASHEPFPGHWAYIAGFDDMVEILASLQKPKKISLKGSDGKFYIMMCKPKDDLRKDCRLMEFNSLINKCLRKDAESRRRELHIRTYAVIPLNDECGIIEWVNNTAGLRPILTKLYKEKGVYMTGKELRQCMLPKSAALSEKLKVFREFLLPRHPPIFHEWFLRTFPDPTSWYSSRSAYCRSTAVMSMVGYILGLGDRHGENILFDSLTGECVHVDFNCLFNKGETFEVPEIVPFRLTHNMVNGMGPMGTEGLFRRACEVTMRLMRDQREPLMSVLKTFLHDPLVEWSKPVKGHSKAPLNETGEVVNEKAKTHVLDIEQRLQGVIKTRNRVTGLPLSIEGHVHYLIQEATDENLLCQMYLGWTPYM
Sequence of ATR/ATRIP complex (Q8WXE1 whole entry partner): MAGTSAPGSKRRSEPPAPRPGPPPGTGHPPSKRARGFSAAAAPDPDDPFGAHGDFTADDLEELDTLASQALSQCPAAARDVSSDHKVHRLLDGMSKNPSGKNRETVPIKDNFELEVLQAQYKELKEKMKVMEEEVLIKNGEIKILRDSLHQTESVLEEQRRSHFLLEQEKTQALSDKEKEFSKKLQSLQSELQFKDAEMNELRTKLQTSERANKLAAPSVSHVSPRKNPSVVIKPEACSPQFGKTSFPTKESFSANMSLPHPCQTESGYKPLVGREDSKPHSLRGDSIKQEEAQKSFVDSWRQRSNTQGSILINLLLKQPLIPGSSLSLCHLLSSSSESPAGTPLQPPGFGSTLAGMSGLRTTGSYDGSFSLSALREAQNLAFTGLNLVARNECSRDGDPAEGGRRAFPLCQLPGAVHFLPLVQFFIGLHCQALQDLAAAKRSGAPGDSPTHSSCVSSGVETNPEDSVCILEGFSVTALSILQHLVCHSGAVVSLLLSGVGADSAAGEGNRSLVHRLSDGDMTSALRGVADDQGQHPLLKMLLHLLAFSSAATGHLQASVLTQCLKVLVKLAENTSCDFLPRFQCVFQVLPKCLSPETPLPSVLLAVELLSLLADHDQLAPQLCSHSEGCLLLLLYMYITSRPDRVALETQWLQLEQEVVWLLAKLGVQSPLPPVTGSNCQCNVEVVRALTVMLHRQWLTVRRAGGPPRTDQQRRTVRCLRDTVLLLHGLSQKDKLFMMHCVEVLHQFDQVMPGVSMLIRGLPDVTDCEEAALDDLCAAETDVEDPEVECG

Row | SMILES | pIC50 [1] | pIC50 (ATR/ATRIP complex)
1 | COC1CCN(c2ncnc3c2CN(c2cc(Cl)nc4[nH]ccc24)[C@H](C)C3)CC1 [Example 68, (R)-6-(6-chloro-1H-pyrrolo[2,3-b]pyridin-4-yl)-4-(4-methoxy-piperidin-1-yl)-7-methyl-5,6,7,8-tetrahydro-pyrido[4,3-d]pyrimidine] | 7.32 | 6.32
2 | C[C@@H]1Cc2ncnc(N3CC4CCC(C3)C4NS(C)(=O)=O)c2CN1c1ccnc2[nH]ccc12 (stereo partly drawn) [Example 69, N-(3-((R)-7-methyl-6-(1H-pyrrolo[2,3-b]-pyridin-4-yl)-5,6,7,8-tetrahydropyrido[4,3-d]-pyrimidin-4-yl)-3-aza-bicyclo[3.2.1]octan-8-yl)-methanesulfonamide] | 7.32 | 6.55
3 | C[C@@H]1Cc2ncnc(N3CCC[C@@H](C(C)(C)O)C3)c2CN1c1cc(Cl)nc2[nH]ccc12 [Example 70, 2-((R)-1-((R)-6-(6-chloro-1H-pyrrolo[2,3-b]-pyridin-4-yl)-7-methyl-5,6,7,8-tetrahydropyrido-[4,3-d]pyrimidin-4-yl)-piperidin-3-yl)propan-2-ol] | 8.00 | 7.06
4 | C[C@@H]1Cc2ncnc(N3CCC[C@H](NS(C)(=O)=O)C3)c2CN1c1cc(Cl)nc2[nH]ccc12 [Example 71, N-((S)-1-((R)-6-(6-chloro-1H-pyrrolo[2,3-b]-pyridin-4-yl)-7-methyl-5,6,7,8-tetrahydropyrido-[4,3-d]pyrimidin-4-yl)-piperidin-3-yl)-methanesulfonamide] | 8.15 | 7.14
5 | C[C@@H]1Cc2ncnc(N3CCC[C@@H](NS(C)(=O)=O)C3)c2CN1c1cc(Cl)nc2[nH]ccc12 [Example 72, N-((R)-1-((R)-6-(6-chloro-1H-pyrrolo[2,3-b]-pyridin-4-yl)-7-methyl-5,6,7,8-tetrahydropyrido-[4,3-d]pyrimidin-4-yl)-piperidin-3-yl)-methanesulfonamide] | 6.92 | 6.15
6 | C[C@@H]1Cc2ncnc(C3=CCC(NS(C)(=O)=O)CC3)c2CN1c1cc(Cl)nc2[nH]ccc12 (stereo partly drawn) [Example 73, N-(4-((R)-6-(6-chloro-1H-pyrrolo[2,3-b]pyridin-4-yl)-7-methyl-5,6,7,8-tetrahydropyrido[4,3-d]-pyrimidin-4-yl)cyclohex-3-en-1-yl)methane-sulfonamide] | 7.74 | 6.95
7 | C[C@@H]1Cc2ncnc(N3CCC(O)(C4CC4)CC3)c2CN1c1cc(Cl)nc2[nH]ccc12 [Example 75, (R)-1-(6-(6-chloro-1H-pyrrolo[2,3-b]pyridin-4-yl)-7-methyl-5,6,7,8-tetrahydropyrido[4,3-d]pyrimidin-4-yl)-4-cyclopropylpiperidin-4-ol] | 7.47 | 6.61
8 | CNC(=O)C1CCN(c2ncnc3c2CN(c2cc(Cl)nc4[nH]ccc24)[C@H](C)C3)CC1 [Example 76, (R)-1-(6-(6-chloro-1H-pyrrolo[2,3-b]pyridin-4-yl)-7-methyl-5,6,7,8-tetrahydropyrido[4,3-d]-pyrimidin-4-yl)-N-methylpiperidine-4-carboxamide] | 7.21 | 6.15
9 | C[C@@H]1Cc2ncnc(N3CC(O)C3)c2CN1c1cc(Cl)nc2[nH]ccc12 [Example 77, (R)-1-(6-(6-chloro-1H-pyrrolo[2,3-b]pyridin-4-yl)-7-methyl-5,6,7,8-tetrahydropyrido[4,3-d]-pyrimidin-4-yl)azetidin-3-ol] | 7.68 | 6.49
10 | C[C@@H]1Cc2ncnc(N3C[C@H]4CC[C@@H](C3)[C@H]4NS(=O)(=O)C3CC3)c2CN1c1cc(Cl)nc2[nH]ccc12 [Example 78, N-((1R,5S,8R)-3-((R)-6-(6-chloro-1H-pyrrolo[2,3-b]pyridin-4-yl)-7-methyl-5,6,7,8-tetrahydropyrido-[4,3-d]pyrimidin-4-yl)-3-azabicyclo[3.2.1]-octan-8-yl)cyclopropane-sulfonamide] | 7.30 | 6.74
11 | C[C@@H]1Cc2ncnc(N3CC(C#N)C3)c2CN1c1cc(Cl)nc2[nH]ccc12 [Example 79, (R)-1-(6-(6-chloro-1H-pyrrolo[2,3-b]pyridin-4-yl)-7-methyl-5,6,7,8-tetrahydropyrido[4,3-d]-pyrimidin-4-yl)azetidine-3-carbonitrile] | 7.85 | 6.99
12 | C[C@@H]1Cc2ncnc(C3CCN(S(=O)(=O)C4CC4)CC3)c2CN1c1ccnc2[nH]ccc12 [Example 80, (R)-4-(1-(cyclopropyl-sulfonyl)piperidin-4-yl)-7-methyl-6-(1H-pyrrolo[2,3-b]pyridin-4-yl)-5,6,7,8-tetrahydro-pyrido[4,3-d]pyrimidine] | 6.88 | 5.96
13 | C[C@@H]1Cc2ncnc(N3CC(C#N)C3)c2CN1c1ccnc2[nH]ccc12 [Example 81, (R)-1-(7-methyl-6-(1H-pyrrolo[2,3-b]pyridin-4-yl)-5,6,7,8-tetrahydro-pyrido[4,3-d]pyrimidin-4-yl)azetidine-3-carbonitrile] | 7.42 | 6.61
14 | C[C@@H]1Cc2ncnc(N3CCC(C#N)CC3)c2CN1c1ccnc2[nH]ccc12 [Example 82, (R)-1-(7-methyl-6-(1H-pyrrolo[2,3-b]pyridin-4-yl)-5,6,7,8-tetrahydro-pyrido[4,3-d]pyrimidin-4-yl)piperidine-4-carbonitrile] | 7.10 | 6.10
15 | C[C@@H]1Cc2ncnc(N3CCCC(C#N)C3)c2CN1c1ccnc2[nH]ccc12 (stereo partly drawn) [Example 83, 1-((R)-7-methyl-6-(1H-pyrrolo[2,3-b]pyridin-4-yl)-5,6,7,8-tetrahydro-pyrido[4,3-d]pyrimidin-4-yl)piperidine-3-carbonitrile] | 7.25 | 6.44
16 | C[C@@H]1Cc2ncnc(N3CC(NS(C)(=O)=O)C3)c2CN1c1ccnc2[nH]ccc12 [Example 84, (R)-N-(1-(7-methyl-6-(1H-pyrrolo[2,3-b]-pyridin-4-yl)-5,6,7,8-tetrahydropyrido[4,3-d]pyrimidin-4-yl)-azetidin-3-yl)-methanesulfonamide] | 7.10 | 6.14
17 | C[C@@H]1Cc2ncnc(N3CC(NS(=O)(=O)C4CC4)C3)c2CN1c1ccnc2[nH]ccc12 [Example 85, (R)-N-(1-(7-methyl-6-(1H-pyrrolo[2,3-b]-pyridin-4-yl)-5,6,7,8-tetrahydropyrido[4,3-d]-pyrimidin-4-yl)azetidin-3-yl)cyclopropane-sulfonamide] | 7.08 | 6.95
18 | C[C@@H]1Cc2ncnc(N3CC[C@H](S(C)(=O)=O)C3)c2CN1c1cc(Cl)nc2[nH]ccc12 [Example 86, (R)-6-(6-chloro-1H-pyrrolo[2,3-b]pyridin-4-yl)-7-methyl-4-((S)-3-(methylsulfonyl)-pyrrolidin-1-yl)-5,6,7,8-tetrahydropyrido[4,3-d]-pyrimidine] | 7.29 | 6.48
19 | C[C@@H]1Cc2ncnc(N3CC[C@@H](S(C)(=O)=O)C3)c2CN1c1cc(Cl)nc2[nH]ccc12 [Example 87, (R)-6-(6-chloro-1H-pyrrolo[2,3-b]pyridin-4-yl)-7-methyl-4-((R)-3-(methylsulfonyl)-pyrrolidin-1-yl)-5,6,7,8-tetrahydropyrido[4,3-d]-pyrimidine] | 7.70 | 6.63
20 | C[C@@H]1Cc2ncnc(C3CCN(S(C)(=O)=O)CC3)c2CN1c1cnc2cn[nH]c2c1 [Example 89, (R)-7-methyl-4-(1-(methylsulfonyl)piperidin-4-yl)-6-(1H-pyrazolo-[4,3-b]pyridin-6-yl)-5,6,7,8-tetrahydro-pyrido[4,3-d]pyrimidine] | 5.13 | 6.86
21 | COc1cc(N2Cc3c(ncnc3C3CCN(S(C)(=O)=O)CC3)C[C@H]2C)c2cc[nH]c2n1 [Example 91, (R)-6-(6-methoxy-1H-pyrrolo[2,3-b]pyridin-4-yl)-7-methyl-4-(1-(methylsulfonyl)-piperidin-4-yl)-5,6,7,8-tetrahydropyrido[4,3-d]-pyrimidine] | 7.74 | 6.57
22 | CS(=O)(=O)N1CCC(c2ncnc3c2CN(c2ccnc4[nH]ccc24)C(CF)C3)CC1 (stereo not shown) [Example 92] | 6.23 | 5.89
23 | CC(C)Oc1cc(N2Cc3c(ncnc3C3CCN(S(C)(=O)=O)CC3)C[C@H]2C)c2cc[nH]c2n1 [Example 93, (R)-6-(6-isopropoxy-1H-pyrrolo[2,3-b]pyridin-4-yl)-7-methyl-4-(1-(methylsulfonyl)piperidin-4-yl)-5,6,7,8-tetrahydro-pyrido[4,3-d]pyrimidine] | 7.82 | 7.06
24 | Cc1cc2c(N3Cc4c(ncnc4C4CCN(S(C)(=O)=O)CC4)C[C@H]3C)ccnc2[nH]1 [Example 94, (R)-7-methyl-6-(2-methyl-1H-pyrrolo[2,3-b]pyridin-4-yl)-4-(1-(methylsulfonyl)piperidin-4-yl)-5,6,7,8-tetrahydro-pyrido[4,3-d]pyrimidine] | 7.01 | 7.29
25 | C[C@@H]1Cc2ncnc(C3CCN(S(C)(=O)=O)CC3)c2CN1c1cc(C2CC2)nc2[nH]ccc12 [Example 95, (R)-6-(6-cyclopropyl-1H-pyrrolo[2,3-b]pyridin-4-yl)-7-methyl-4-(1-(methylsulfonyl)-piperidin-4-yl)-5,6,7,8-tetrahydropyrido[4,3-d]-pyrimidine] | 7.27 | 6.57
26 | C[C@@H]1Cc2ncnc(C3CCN(S(C)(=O)=O)CC3)c2CN1c1cc(OCC(F)(F)F)nc2[nH]ccc12 [Example 96, (R)-7-methyl-4-(1-(methylsulfonyl)piperidin-4-yl)-6-(6-(2,2,2-tri-fluoroethoxy)-1H-pyrrolo[2,3-b]pyridin-4-yl)-5,6,7,8-tetrahydro-pyrido[4,3-d]pyrimidine] | 7.66 | 6.49
